These results are taken from ChEMBL document CHEMBL1128898, “Sch 51048, a novel broad-spectrum orally active antifungal agent: Synthesis and preliminary structure-activity profile” (1995).

SMILES strings stand for the structures.

What all share (type): functional
What all share (details): inhaled or nasal

For assay [1], the system named is Mus musculus. Nature of the assay: Compound was tested for percentage survival of immunocompromized CF-1 mice infected by inhalation with Aspergillus fumigatus strain ND142 conidia at dose 100 mg/Kg.
For assay [2], the system named is Mus musculus. Nature of the assay: Compound was tested for percentage survival of immunocompromized CF-1 mice infected by inhalation with Aspergillus fumigatus strain ND142 conidia at dose 50 mg/Kg.
The test system of assay [3] is Mus musculus. The experiment in a line: Compound was tested for percentage survival of immunocompromized CF-1 mice infected […] albicans strain C-65 colony forming units at dose 25 mg/Kg.
Assay [4] has as its system Mus musculus. Nature of the assay: Compound was tested for percentage survival of immunocompromized CF-1 mice infected […] albicans strain C-65 colony forming units at dose 50 mg/Kg.
Assay [5] has as its system Mus musculus. The experiment in a line: Compound was tested for percentage survival of normal CF-1 Mice infected […] albicans strain C-65 colony forming units at dose 25 mg/Kg.
For assay [6], the system named is Mus musculus. Nature of the assay: Compound was tested for percentage survival of normal CF-1 Mice infected […] albicans strain C-65 colony forming units at dose 50 mg/Kg.
The subject of assay [7] is Mus musculus. Nature of the assay: Compound was tested for percentage survival of immunocompromized CF-1 mice infected by inhalation with Aspergillus flavus strain ND134 at dose 50 mg/Kg.
In assay [8] the test system is Mus musculus. Nature of the assay: Compound was tested for percentage survival of immunocompromized CF-1 mice infected […] albicans strain C-65 colony forming units at dose 10 mg/Kg.
The subject of assay [9] is Mus musculus. The experiment in a line: Compound was tested for percentage survival of normal CF-1 Mice infected […] albicans strain C-65 colony forming units at dose 10 mg/Kg.
For assay [10], the system named is Mus musculus. Nature of the assay: Compound was tested for percentage survival of normal CF-1 Mice infected […] albicans strain C-65 colony forming units at dose 1 mg/kg.
The subject of assay [11] is Mus musculus. The experiment in a line: Compound was tested for percentage survival of immunocompromized CF-1 mice infected by inhalation with Aspergillus flavus strain ND134 at dose 100 mg/Kg.

With `CC(C)n1ncn(-c2ccc(N3CCN(c4ccc(OC[C@@H]5CC[C@@](Cn6cncn6)(c6ccc(F)cc6F)C5)cc4)CC3)cc2)c1=O`, the survival at 100 mg/kg in the assay on Mus musculus [1] stood at 10%. This molecule showed a survival at 50 mg/kg with Mus musculus [2] of 10%.
As to `CCC(C)n1ncn(-c2ccc(N3CCN(c4ccc(OC[C@H]5CO[C@](Cn6cncn6)(c6cc(F)cc(F)c6)O5)cc4)CC3)cc2)c1=O` (some centres undefined), the figures for the survival at 25 mg/kg in the assay with Mus musculus [3] and in the assay with Mus musculus [5] were 0% and 20%, respectively. Besides, the survival at 50 mg/kg was 0% in the assay with Mus musculus [4] and 30% in the assay on Mus musculus [6].
Take `CCC(CC)n1ncn(-c2ccc(N3CCN(c4ccc(OC[C@@H]5CO[C@@](Cn6cncn6)(c6ccc(F)cc6F)C5)cc4)CC3)cc2)c1=O`: the survival at 50 mg/kg in the assay on Mus musculus [7] was determined as 60%; in the assay on Mus musculus [2] it was 70%; in the assay on Mus musculus [4], 50%. The survival at 10 mg/kg in the assay with Mus musculus [8] came out at 20%; in the assay on Mus musculus [9], 100%. Further, the survival at 25 mg/kg with Mus musculus [3] came out at 30%; in the assay on Mus musculus [5], 100%. Besides, in the assay with Mus musculus [10], the survival at 1 mg/kg is 80%.
As to `CCC(C)n1ncn(-c2ccc(N3CCN(c4ccc(OC[C@@H]5CO[C@@](Cn6cncn6)(c6ccc(F)cc6F)C5)cc4)CC3)cc2)c1=O` (single isomer, unassigned), the survival at 50 mg/kg is 80% with Mus musculus [7], 10% with Mus musculus [2], 40% with Mus musculus [4] and 100% in the assay with Mus musculus [6]. In addition, the survival at 100 mg/kg in the assay on Mus musculus [11] stood at 90%; in the assay on Mus musculus [1], 30%. Also, the values for the survival at 10 mg/kg in the assay on Mus musculus [8] and in the assay on Mus musculus [9] were 30% and 80%, respectively. The survival at 25 mg/kg came to 40% with Mus musculus [3] and 90% in the assay with Mus musculus [5].
With `CCC(C)n1ncn(-c2ccc(N3CCN(c4ccc(OC[C@H]5CO[C@](Cn6cncn6)(c6ccc(Cl)cc6Cl)O5)cc4)CC3)cc2)c1=O` (some centres undefined) [ITRACONAZOLE], the survival at 100 mg/kg in the assay with Mus musculus [11] came to 20%; with Mus musculus [1], 10%. In addition, the survival at 25 mg/kg in the assay with Mus musculus [3] and in the assay on Mus musculus [5] was 0% in each case. Moreover, the survival at 50 mg/kg in the assay with Mus musculus [4] came out at 20%; in the assay on Mus musculus [6], 40%.
For `OC(Cn1cncn1)(Cn1cncn1)c1ccc(F)cc1F` [FLUCONAZOLE], the figures for the survival at 10 mg/kg in the assay on Mus musculus [8] and with Mus musculus [9] were 30% and 90%, respectively. Besides, the survival at 25 mg/kg in the assay with Mus musculus [3] was 40%; in the assay on Mus musculus [5] it was 100%. Moreover, the survival at 1 mg/kg in the assay on Mus musculus [10] was found to be 0%.
`O=c1n(-c2ccc(N3CCN(c4ccc(OC[C@@H]5CC[C@@](Cn6cncn6)(c6ccc(F)cc6F)C5)cc4)CC3)cc2)cnn1C1CCCC1`: the survival at 50 mg/kg is 40% in the assay with Mus musculus [7] and 70% in the assay on Mus musculus [6]. Besides, the survival at 100 mg/kg in the assay on Mus musculus [11] was determined as 50%. This molecule also gave a survival at 25 mg/kg in the assay with Mus musculus [5] of 50%.
